From PubChem BioAssay (NCI)
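Five concentrations, 48 hours, 96-well plates. GI50 marks 50% less growth. TGI marks complete inhibition of growth.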

Legend:
Experiment in all cases: NCI tumour cell line growth inhibition, 48 h
[1] = test system: CAKI-1 renal
[2] = test system: SNB-75 CNS
[3] = test system: U251 CNS
[4] = test system: BT-549 breast
[5] = test system: HCT-15 colon
[6] = test system: M14 melanoma
[7] = test system: CCRF-CEM leukemia
[8] = test system: MCF7 breast
[9] = test system: NCI-H23 lung
[10] = test system: HOP-62 NSCLC
[11] = test system: PC-3 prostate
[12] = test system: KM12 colon
[13] = test system: 786-0 renal
[14] = test system: SK-MEL-28 melanoma
[15] = test system: SF-295 CNS
[16] = test system: MDA-MB-435
[17] = test system: SK-OV-3 ovarian
[18] = test system: UACC-257 melanoma
[19] = test system: DU-145 prostate
[20] = test system: UO-31 renal
[21] = test system: IGROV1 ovarian
[22] = test system: SN12C renal
[23] = test system: ACHN renal
[24] = test system: OVCAR-4 ovarian
[25] = test system: SK-MEL-5 melanoma
[26] = test system: COLO 205 colon
[27] = test system: RXF 393 renal
[28] = test system: MDA-MB-468 breast
[29] = test system: OVCAR-5 ovarian
[30] = test system: NCI/ADR-RES ovarian
[31] = test system: NCI-H226 lung
[32] = test system: HS 578T breast
[33] = test system: SNB-19 CNS
[34] = test system: NCI-H522 lung
[35] = test system: MALME-3M melanoma
[36] = test system: A498 renal
[37] = test system: SF-268 CNS
[38] = test system: NCI-H460 lung
[39] = test system: OVCAR-3 ovarian
[40] = test system: MOLT-4 leukemia
[41] = test system: RPMI-8226 leukemia
[42] = test system: OVCAR-8 ovarian
[43] = test system: HOP-92 NSCLC
[44] = test system: HCT-116 colon
[45] = test system: UACC-62 melanoma
[46] = test system: T-47D breast
[47] = test system: LOX IMVI melanoma
[48] = test system: K-562 leukemia
[49] = test system: EKVX NSCLC
[50] = test system: HCC-2998 colon
[51] = test system: A549 NSCLC
[52] = test system: TK-10 renal
[53] = test system: SK-MEL-2 melanoma
[54] = test system: SF-539 CNS
[55] = test system: SW-620 colon
[56] = test system: HL-60(TB) leukemia
[57] = test system: MDA-MB-231 breast
[58] = test system: HT29 colon
[59] = test system: SR leukemia

**Q.** What does the source list for `C#CCN(C)CCCOc1ccc(N(C)C(=O)c2cc(C(C)C)c(O)cc2O)cc1Cl`?
**A.** GI50 [1]: 325 nM; TGI [1]: 14900 nM; GI50 [2]: 977 nM; TGI [2]: 17800 nM; GI50 [3]: 283 nM; TGI [3]: 16000 nM; GI50 [4]: 1090 nM; TGI [4]: 15400 nM; GI50 [5]: 82.7 nM; TGI [5]: 12700 nM; GI50 [6]: 406 nM; TGI [6]: 13800 nM; GI50 [7]: 62.5 nM; TGI [7]: 13300 nM; GI50 [8]: 52.2 nM; TGI [8]: 15400 nM; GI50 [9]: 298 nM; TGI [9]: 15000 nM; GI50 [10]: 249 nM; TGI [10]: 19600 nM; GI50 [11]: 161 nM; TGI [11]: 16000 nM; GI50 [12]: 105 nM; TGI [12]: 10900 nM; GI50 [13]: 2600 nM; TGI [13]: 18700 nM; GI50 [14]: 386 nM; TGI [14]: 13300 nM; GI50 [15]: 348 nM; TGI [15]: 12700 nM; GI50 [16]: 133 nM; TGI [16]: 12400 nM; GI50 [17]: 53.4 nM; TGI [17]: 12900 nM; GI50 [18]: 521 nM; TGI [18]: 13800 nM; GI50 [19]: 59.2 nM; TGI [19]: 18200 nM; GI50 [20]: 148 nM; TGI [20]: 14200 nM; GI50 [21]: 172 nM; TGI [21]: 14700 nM; GI50 [22]: 92.5 nM; TGI [22]: 14200 nM; GI50 [23]: 96.3 nM; TGI [23]: 13500 nM; GI50 [24]: 2010 nM; TGI [24]: 22200 nM; GI50 [25]: 357 nM; TGI [25]: 2020 nM; GI50 [26]: 2830 nM; TGI [26]: 12500 nM; GI50 [27]: 685 nM; TGI [27]: 13800 nM; GI50 [28]: 96.2 nM; TGI [28]: 462 nM; GI50 [29]: 477 nM; TGI [29]: 16000 nM; GI50 [30]: 305 nM; TGI [30]: 8930 nM; GI50 [31]: 557 nM; TGI [31]: 19800 nM; GI50 [32]: 1330 nM; TGI [32]: 27100 nM; GI50 [33]: 435 nM; TGI [33]: 15400 nM; GI50 [34]: 165 nM; TGI [34]: 14100 nM; GI50 [35]: 195 nM; TGI [35]: 2230 nM; GI50 [36]: 642 nM; TGI [36]: 16500 nM; GI50 [37]: 1320 nM; TGI [37]: 25900 nM; GI50 [38]: 67.9 nM; TGI [38]: 10900 nM; GI50 [39]: 509 nM; TGI [39]: 16800 nM; GI50 [40]: 101 nM; TGI [40]: 12500 nM; GI50 [41]: 266 nM; TGI [41]: 20500 nM; GI50 [42]: 202 nM; TGI [42]: 21000 nM; GI50 [43]: 328 nM; TGI [43]: 3590 nM; GI50 [44]: 88.9 nM; TGI [44]: 13300 nM; GI50 [45]: 168 nM; TGI [45]: 913 nM; GI50 [46]: 85.3 nM; TGI [46]: 13500 nM; GI50 [47]: 129 nM; TGI [47]: 303 nM; GI50 [48]: 78.8 nM; TGI [48]: 19400 nM; GI50 [49]: 526 nM; TGI [49]: 12700 nM; GI50 [50]: 224 nM; TGI [50]: 2040 nM; GI50 [51]: 188 nM; TGI [51]: 15400 nM; GI50 [52]: 323 nM; TGI [52]: 16800 nM; GI50 [53]: 1720 nM; TGI [53]: 18600 nM; GI50 [54]: 325 nM; TGI [54]: 12900 nM; GI50 [55]: 102 nM; TGI [55]: 13900 nM; GI50 [56]: 53.3 nM; TGI [56]: 9100 nM; GI50 [57]: 213 nM; TGI [57]: 10900 nM; GI50 [58]: 3270 nM; TGI [58]: 13900 nM; GI50 [59]: 40.9 nM; TGI [59]: 19400 nM
